Results as given in patent publication US9670147B2, “Antioxidant inflammation modulators: oleanolic acid derivatives with amino and other modifications at C-17” (REATA PHARMACEUTICALS, INC., priority 2008, dated 2017).
pIC50: −log10 of the molar value.

Legend:
[1] = test system: RAW264.7 macrophages; experiment: Cell viability, WST-1 reagent; type: cell-based, mouse; settings: Mus musculus, 2 h pre-treatment, then 20 ng/ml IFNγ for 24 hours
Description: (§1) FIGS. 1-34. Inhibition of NO Production. RAW264.7 macrophages were pre-treated with DMSO or drugs at various concentrations (nM) for 2 hours, then treated with 20 ng/ml IFNγ for 24 hours. NO concentration in media was determined using the Griess reagent system; cell viability was determined using WST-1 reagent. FIGS. 49-52. Inhibition of NO Production. RAW264.7 macrophages were pre-treated with DMSO or drugs at various concentrations (nM) for 2 hours, then treated with 20 ng/ml IFNγ for 24 hours. NO concentration in media was determined using the Griess reagent system; cell viability was determined using WST-1 reagent. RAW264.7 macrophages were pre-treated with DMSO or drugs for 2 hours, then treated with recombinant mouse IFNγ (Sigma) for 24 hours. NO concentration in media was determined using the Griess reagent system (Promega). Cell viability was determined using WST-1 reagent (Roche).

[2] = test system: IFNγ-induced NO production in RAW264.7 macrophages; experiment: Suppression of IFNγ-induced NO production (Griess reagent); type: cell-based, mouse; settings: Mus musculus, 2 h pre-treatment, then 20 ng/ml IFNγ for 24 hours
Description: as §1

Compound | pIC50 [1] | pIC50 [2]
CC1(C)CC[C@]2(NC(N)=O)CC[C@]3(C)[C@H](C(=O)C=C4[C@@]5(C)C=C(C#N)C(=O)C(C)(C)[C@@H]5CC[C@]43C)[C@@H]2C1 [Compound 63176, 1-((4aS,6aR,6bS,8aR,12aS,14aR,14bS)-11-cyano-2,2,6a,6b,9,9,12a-heptamethyl-10,14-dioxo-1,2,3,4,4a,5,6,6a,6b,7,8,8a,9,10,12a,14,14a,14b-octadecahydropicen-4a-yl)urea] | < 6.70 | 7.00
CC1(C)CC[C@]2(NC(=O)CC(F)(F)F)CC[C@]3(C)[C@H](C(=O)C=C4[C@@]5(C)C=C(C#N)C(=O)C(C)(C)[C@@H]5CC[C@]43C)[C@@H]2C1 [Compound 63179, N-((4aS,6aR,6bS,8aR,12aS,14aR,14bS)-11-cyano-2,2,6a,6b,9,9,12a-heptamethyl-10,14-dioxo-1,2,3,4,4a,5,6,6a,6b,7,8,8a,9,10,12a,14,14a,14b-octadecahydropicen-4a-yl)-3,3,3-trifluoropropanamide] | 7.00 | 7.80
CC1(C)CC[C@]2(NC(=O)Nc3ccccc3)CC[C@]3(C)[C@H](C(=O)C=C4[C@@]5(C)C=C(C#N)C(=O)C(C)(C)[C@@H]5CC[C@]43C)[C@@H]2C1 [Compound 63249, 1-((4aS,6aR,6bS,8aR,12aS,14aR,14bS)-11-cyano-2,2,6a,6b,9,9,12a-heptamethyl-10,14-dioxo-1,2,3,4,4a,5,6,6a,6b,7,8,8a,9,10,12a,14,14a,14b-octadecahydropicen-4a-yl)-3-phenylurea] | 7.30 | 
CC(C)OC(=O)N[C@]12CCC(C)(C)C[C@H]1[C@H]1C(=O)C=C3[C@@]4(C)C=C(C#N)C(=O)C(C)(C)[C@@H]4CC[C@@]3(C)[C@]1(C)CC2 [Compound 63184, isopropyl-(4aS,6aR,6bS,8aR,12aS,14aR,14bS)-11-cyano-2,2,6a,6b,9,9,12a-heptamethyl-10,14-dioxo-1,2,3,4,4a,5,6,6a,6b,7,8,8a,9,10,12a,14,14a,14b-octadecahydropicen-4a-ylcarbamate] | 7.12 | 7.84
CC(=O)N[C@]12CCC(C)(C)C[C@H]1[C@H]1C(=O)C[C@@H]3[C@@]4(C)C=C(C#N)C(=O)C(C)(C)[C@@H]4CC[C@@]3(C)[C@]1(C)CC2 [Compound 63321, N-((4aS,6aR,6bR,8aR,12aR,12bR,14aR,14bS)-11-cyano-2,2,6a,6b,9,9,12a-heptamethyl-10,14-dioxo-1,2,3,4,4a,5,6,6a,6b,7,8,8a,9,10,12a,12b,13,14,14a,14b-icosahydropicen-4a-yl)acetamide] |  | ~7.15
CC1(C)CC[C@]2(NC(=O)C(F)(F)F)CC[C@]3(C)[C@H](C(=O)C=C4[C@@]5(C)C=C(C#N)C(=O)C(C)(C)[C@@H]5CC[C@]43C)[C@@H]2C1 [Compound 63171, N-((4aS,6aR,6bS,8aR,12aS,14aR,14bS)-11-cyano-2,2,6a,6b,9,9,12a-heptamethyl-10,14-dioxo-1,2,3,4,4a,5,6,6a,6b,7,8,8a,9,10,12a,14,14a,14b-octadecahydropicen-4a-yl)-2,2,2-trifluoroacetamide] | 7.05 | 7.92
CCOC(=O)N[C@]12CCC(C)(C)C[C@H]1[C@H]1C(=O)C=C3[C@@]4(C)C=C(C#N)C(=O)C(C)(C)[C@@H]4CC[C@@]3(C)[C@]1(C)CC2 [Compound 63168, ethyl-(4aS,6aR,6bS,8aR,12aS,14aR,14bS)-11-cyano-2,2,6a,6b,9,9,12a-heptamethyl-10,14-dioxo-1,2,3,4,4a,5,6,6a,6b,7,8,8a,9,10,12a,14,14a,14b-octadecahydropicen-4a-ylcarbamate] | 6.82 | 8.49
CC1(C)CC[C@]2(NC(=O)n3cccn3)CC[C@]3(C)[C@H](C(=O)C=C4[C@@]5(C)C=C(C#N)C(=O)C(C)(C)[C@@H]5CC[C@]43C)[C@@H]2C1 [Compound 63178, N-((4aS,6aR,6bS,8aR,12aS,14aR,14bS)-11-cyano-2,2,6a,6b,9,9,12a-heptamethyl-10,14-dioxo-1,2,3,4,4a,5,6,6a,6b,7,8,8a,9,10,12a,14,14a,14b-octadecahydropicen-4a-yl)-1H-pyrazole-1-carboxamide] | 7.10 | 8.17
CC1(C)CC[C@]2(NC(=O)N3CCCCC3)CC[C@]3(C)[C@H](C(=O)C=C4[C@@]5(C)C=C(C#N)C(=O)C(C)(C)[C@@H]5CC[C@]43C)[C@@H]2C1 [Compound 63181, N-((4aS,6aR,6bS,8aR,12aS,14aR,14bS)-11-cyano-2,2,6a,6b,9,9,12a-heptamethyl-10,14-dioxo-1,2,3,4,4a,5,6,6a,6b,7,8,8a,9,10,12a,14,14a,14b-octadecahydropicen-4a-yl)piperidine-1-carboxamide] | 7.12 | 8.10 to 8.40
CN(C)C(=O)N[C@]12CCC(C)(C)C[C@H]1[C@H]1C(=O)C=C3[C@@]4(C)C=C(C#N)C(=O)C(C)(C)[C@@H]4CC[C@@]3(C)[C@]1(C)CC2 [Compound 63180, 3-((4aS,6aR,6bS,8aR,12aS,14aR,14bS)-11-cyano-2,2,6a,6b,9,9,12a-heptamethyl-10,14-dioxo-1,2,3,4,4a,5,6,6a,6b,7,8,8a,9,10,12a,14,14a,14b-octadecahydropicen-4a-yl)-1,1-dimethylurea] | 6.70 | 7.87
CCNC(=O)N[C@]12CCC(C)(C)C[C@H]1[C@H]1C(=O)C=C3[C@@]4(C)C=C(C#N)C(=O)C(C)(C)[C@@H]4CC[C@@]3(C)[C@]1(C)CC2 [Compound 63173, 1-((4aS,6aR,6bS,8aR,12aS,14aR,14bS)-11-cyano-2,2,6a,6b,9,9,12a-heptamethyl-10,14-dioxo-1,2,3,4,4a,5,6,6a,6b,7,8,8a,9,10,12a,14,14a,14b-octadecahydropicen-4a-yl)-3-ethylurea] | < 6.70 | 7.51
CC1(C)CC[C@]2(NC(=O)Cc3ccccc3)CC[C@]3(C)[C@H](C(=O)C=C4[C@@]5(C)C=C(C#N)C(=O)C(C)(C)[C@@H]5CC[C@]43C)[C@@H]2C1 [Compound 63244, N-((4aS,6aR,6bS,8aR,12aS,14aR,14bS)-11-cyano-2,2,6a,6b,9,9,12a-heptamethyl-10,14-dioxo-1,2,3,4,4a,5,6,6a,6b,7,8,8a,9,10,12a,14,14a,14b-octadecahydropicen-4a-yl)-2-phenylacetamide] | 6.70 | 8.00
CCN[C@]12CCC(C)(C)C[C@H]1[C@H]1C(=O)C[C@@H]3[C@@]4(C)C=C(C#N)C(=O)C(C)(C)[C@@H]4CC[C@@]3(C)[C@]1(C)CC2 [Compound 63238, (4aR,6aR,6bR,8aS,12aS,12bR,14aR,14bR)-8a-(ethylamino)-4,4,6a,6b,11,11,14b-heptamethyl-3,13-dioxo-3,4,4a,5,6,6a,6b,7,8,8a,9,10,11,12,12a,12b,13,14,14a,14b-icosahydropicene-2-carbonitrile] | < 6.70 | ~6.92
CC(=O)N[C@]12CCC(C)(C)C[C@H]1[C@H]1C(=O)C=C3[C@@]4(C)C=C(C#N)C(=O)C(C)(C)[C@@H]4CC[C@@]3(C)[C@]1(C)CC2 [Compound 63170, N-((4aS,6aR,6bS,8aR,12aS,14aR,14bS)-11-cyano-2,2,6a,6b,9,9,12a-heptamethyl-10,14-dioxo-1,2,3,4,4a,5,6,6a,6b,7,8,8a,9,10,12a,14,14a,14b-octadecahydropicen-4a-yl)acetamide] | < 6.70 | 7.97
CC1(C)CC[C@]2(NC(=O)c3ccccc3)CC[C@]3(C)[C@H](C(=O)C=C4[C@@]5(C)C=C(C#N)C(=O)C(C)(C)[C@@H]5CC[C@]43C)[C@@H]2C1 [Compound 63182, N-((4aS,6aR,6bS,8aR,12aS,14aR,14bS)-11-cyano-2,2,6a,6b,9,9,12a-heptamethyl-10,14-dioxo-1,2,3,4,4a,5,6,6a,6b,7,8,8a,9,10,12a,14,14a,14b-octadecahydropicen-4a-yl)benzamide] | 6.90 | 7.89 to 8.15
CC1(C)CC[C@]2(NC(=O)C(F)(F)F)CC[C@]3(C)[C@H](C(=O)C[C@@H]4[C@@]5(C)C=C(C#N)C(=O)C(C)(C)[C@@H]5CC[C@]43C)[C@@H]2C1 [Compound 63322, N-((4aS,6aR,6bR,8aR,12aR,12bR,14aR,14bS)-11-cyano-2,2,6a,6b,9,9,12a-heptamethyl-10,14-dioxo-1,2,3,4,4a,5,6,6a,6b,7,8,8a,9,10,12a,12b,13,14,14a,14b-icosahydropicen-4a-yl)-2,2,2-trifluoroacetamide] |  | ~7.30
CCC(=O)N[C@]12CCC(C)(C)C[C@H]1[C@H]1C(=O)C=C3[C@@]4(C)C=C(C#N)C(=O)C(C)(C)[C@@H]4CC[C@@]3(C)[C@]1(C)CC2 [Compound 63189, N-((4aS,6aR,6bS,8aR,12aS,14aR,14bS)-11-cyano-2,2,6a,6b,9,9,12a-heptamethyl-10,14-dioxo-1,2,3,4,4a,5,6,6a,6b,7,8,8a,9,10,12a,14,14a,14b-octadecahydropicen-4a-yl)propionamide] | 7.12 | 8.12
COC(=O)N[C@]12CCC(C)(C)C[C@H]1[C@H]1C(=O)C[C@@H]3[C@@]4(C)C=C(C#N)C(=O)C(C)(C)[C@@H]4CC[C@@]3(C)[C@]1(C)CC2 [Compound 63328, methyl (4aS,6aR,6bR,8aR,12aR,12bR,14aR,14bS)-11-cyano-2,2,6a,6b,9,9,12a-heptamethyl-10,14-dioxo-1,2,3,4,4a,5,6,6a,6b,7,8,8a,9,10,12a,12b,13,14,14a,14b-icosahydropicen-4a-ylcarbamate] |  | ~7.60
CNC(=O)N[C@]12CCC(C)(C)C[C@H]1[C@H]1C(=O)C[C@@H]3[C@@]4(C)C=C(C#N)C(=O)C(C)(C)[C@@H]4CC[C@@]3(C)[C@]1(C)CC2 [Compound 63327, 1-((4aS,6aR,6bR,8aR,12aR,12bR,14aR,14bS)-11-cyano-2,2,6a,6b,9,9,12a-heptamethyl-10,14-dioxo-1,2,3,4,4a,5,6,6a,6b,7,8,8a,9,10,12a,12b,13,14,14a,14b-icosahydropicen-4a-yl)-3-methylurea] |  | ~7.00
